Key:
Assay in all cases: relative viability (nuclei count vs DMSO), 5 days (fraction); higher = more cells survive
XMD13-2 + Navitoclax = compound: C1CC1C(=O)NC2=NNC3=C2C=CC(=C3)C4=CC(=CC=C4)C(=O)NC5CC5 [XMD13-2] + CC1(C)CCC(c2ccc(Cl)cc2)=C(CN2CCN(c3ccc(C(=O)NS(=O)(=O)c4ccc(N[C@H](CCN5CCOCC5)CSc5ccccc5)c(S(=O)(=O)C(F)(F)F)c4)cc3)CC2)C1 [Navitoclax] (partner 0.5 µM)
Summary of the method: (§1)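 Lung cancer cell lines were seeded in 1536-well plates and dosed by pin tool the next day, with either a single drug or a fixed anchor-drug dose combined with five library-drug doses (not always all listed) spaced in √10 steps. Five days later, one step fixed the cells and stained their nuclei (final 0.05% Triton X-100, 1% formaldehyde, 1 ug/ml Hoechst), and nuclei were counted on 4× images. Relative viability is the nuclei count in treated wells divided by the count in vehicle wells, and each value is the median of duplicate plates.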

XMD13-2 + Phenformin = compound: C1CC1C(=O)NC2=NNC3=C2C=CC(=C3)C4=CC(=CC=C4)C(=O)NC5CC5 [XMD13-2] + N=C(N)NC(=N)NCCc1ccccc1 [Phenformin] (partner 250 µM)
Summary of the method: as §1

ALW-II-49-7 + Phenformin = compound: Cc1ccc(C(=O)Nc2cccc(C(F)(F)F)c2)cc1Nc1cncc(C(N)=O)c1 [ALW-II-49-7] + N=C(N)NC(=N)NCCc1ccccc1 [Phenformin] (partner 250 µM)
Summary of the method: as §1

Dasatinib + Pemetrexed = compound: Cc1nc(Nc2ncc(C(=O)Nc3c(C)cccc3Cl)s2)cc(N2CCN(CCO)CC2)n1 [Dasatinib] + Nc1nc2[nH]cc(CCc3ccc(C(=O)N[C@@H](CCC(=O)O)C(=O)O)cc3)c2c(=O)[nH]1 [Pemetrexed] (partner 0.2 µM)
Summary of the method: as §1

Cell Line	relative viability (XMD13-2 + Navitoclax; first compound 0.05 µM)	relative viability (XMD13-2 + Navitoclax; first compound 0.1581 µM)	relative viability (XMD13-2 + Navitoclax; first compound 0.5 µM)	relative viability (XMD13-2 + Navitoclax; first compound 1.581 µM)	relative viability (XMD13-2 + Navitoclax; first compound 5 µM)	relative viability (XMD13-2 + Phenformin; first compound 0.05 µM)	relative viability (XMD13-2 + Phenformin; first compound 0.1581 µM)	relative viability (XMD13-2 + Phenformin; first compound 0.5 µM)	relative viability (XMD13-2 + Phenformin; first compound 1.581 µM)	relative viability (XMD13-2 + Phenformin; first compound 5 µM)	relative viability (ALW-II-49-7 + Phenformin; first compound 0.08 µM)	relative viability (ALW-II-49-7 + Phenformin; first compound 0.253 µM)	relative viability (ALW-II-49-7 + Phenformin; first compound 2.53 µM)	relative viability (ALW-II-49-7 + Phenformin; first compound 8 µM)	relative viability (Dasatinib + Pemetrexed; first compound 0.005 µM)	relative viability (Dasatinib + Pemetrexed; first compound 0.01581 µM)	relative viability (Dasatinib + Pemetrexed; first compound 0.05 µM)	relative viability (Dasatinib + Pemetrexed; first compound 0.1581 µM)	relative viability (Dasatinib + Pemetrexed; first compound 0.5 µM)	relative viability (ALW-II-49-7 + Phenformin; first compound 0.8 µM)
HCC-78	0.851	0.641	0.817	0.582	0.671	0.831	0.755	0.661	0.671	0.684	0.718	0.745	0.677	0.633	0.913	0.894	0.936	0.899	0.76	–
HCC-366	1.12	1.07	1.13	1.06	1.19	0.705	0.577	0.633	0.569	0.611	0.649	0.623	0.622	0.611	0.173	0.147	0.166	0.177	0.114	0.541
HCC-827	0.962	1.02	1	0.978	0.898	0.443	0.366	0.405	0.478	0.392	0.403	0.388	0.413	0.363	0.253	0.251	0.256	0.239	0.133	0.399
HOP-62	1.18	1.07	1.19	1.05	1.04	0.671	0.687	0.837	0.595	0.553	0.585	0.598	0.696	0.429	0.284	0.279	0.352	0.326	0.274	0.611
IA-LM	0.821	0.867	0.724	0.769	0.457	–	–	–	–	–	–	–	–	–	–	–	–	–	–	–
LC-2-ad	0.772	0.503	0.519	0.368	0.375	0.586	0.584	0.669	0.546	0.528	0.478	0.555	0.638	0.531	0.262	0.253	0.256	0.237	0.214	0.58
LCLC-97TM1	0.475	0.456	0.278	0.409	0.227	0.441	0.441	0.425	0.492	0.459	0.44	0.425	0.393	0.459	0.195	0.184	0.177	0.182	0.143	0.451
LCLC-103H	–	–	–	–	–	0.397	0.357	0.357	0.326	0.343	0.306	0.343	0.288	0.335	0.517	0.437	0.481	0.461	0.328	0.281
LK-2	1.19	0.843	0.905	0.957	0.738	0.607	0.496	0.455	0.334	0.392	–	0.476	0.48	0.349	0.286	–	0.201	0.128	0.202	0.388
LOU-NH91	0.752	0.688	0.715	0.696	0.769	0.83	0.663	0.732	0.582	0.867	0.698	0.671	0.596	0.633	0.414	0.389	0.407	0.377	0.319	0.621
NCI-H358	–	–	–	–	–	0.358	0.323	0.336	0.351	0.304	0.324	0.297	0.407	0.312	0.16	0.176	0.143	0.151	0.129	0.356
NCI-H522	–	–	–	–	–	0.732	0.656	0.708	0.616	0.602	0.678	0.667	0.576	0.732	1.04	1.03	0.914	0.706	0.681	0.687
NCI-H650	–	–	–	–	–	0.438	0.544	0.534	0.425	0.488	0.519	0.481	0.449	0.334	0.989	0.932	0.818	0.66	0.418	0.396
NCI-H661	–	–	–	–	–	0.261	0.292	0.274	0.267	0.271	0.28	0.282	0.295	0.297	0.913	0.823	0.889	0.763	0.51	0.278
NCI-H727	0.462	0.362	0.372	0.374	0.3	0.619	0.518	0.556	0.584	0.525	0.52	0.593	0.475	0.51	–	–	–	–	–	0.537
NCI-H1299	1.04	1.03	1.06	1.03	1.09	–	–	–	–	–	–	–	–	–	–	–	–	–	–	–
NCI-H1563	–	–	–	–	–	0.683	0.697	0.64	0.669	0.679	0.65	0.71	0.683	0.606	0.684	0.625	0.487	0.458	0.4	0.67
NCI-H1623	–	–	–	–	–	0.52	0.564	0.582	0.554	0.61	0.566	0.504	0.565	0.564	–	–	–	–	–	0.574
NCI-H1648	–	–	–	–	–	–	–	–	–	–	–	–	–	–	0.454	0.716	0.936	0.699	0.239	–
NCI-H1703	1.59	1.19	1.24	0.889	1.16	–	–	–	–	–	–	–	–	–	–	–	–	–	–	–
NCI-H2342	–	–	–	–	–	0.567	0.602	0.597	0.642	0.651	0.572	0.602	0.497	0.564	0.742	0.705	0.676	0.514	0.285	0.635
SW 900	–	–	–	–	–	0.696	0.621	0.682	0.49	0.781	0.397	0.542	0.703	0.534	0.47	0.348	0.43	0.186	0.203	0.549

Reference: the supplement of paper PMC10307832
